Data reported in patent US9308222B2, “Formulas comprising highly soluble elements and vitamins for the prevention and amelioration of osteoporosis” (priority 2008, dated 2016).

Tests used:
[1] = humans; cited from earlier work
[2] = according to the literature; cited from earlier work
[3] = rats; cited from earlier work
[4] = fortified foods, dual isotope techniques; cited from earlier work
[5] = Calcium, magnesium and zinc balance in rats receiving calcium free diet
From the text: Male Sprague-Dawley rats (about 6-7 weeks), with an initial weight between 220 g to 250 g, were randomly divided into different treatment groups. All the rats were housed in individual metabolic cages in a temperature-controlled room. Each rat received free access to the normal diet (Table 34) before the experiment. Both normal and calcium free diets (Table 34) were used in this set of studies. De-ionized water was provided ad libitum. All the rats were weighed before treatment.
In each study, there were seven treatment groups. […] Rats participating in the normal diet study received normal diet ad libitum throughout. Rats participating in the group of calcium free diet received the calcium free food ad libitum starting five days before and throughout treatment. In both study groups, animals received one dose a day for five days. […] Values of dosage and dietary intake were measured for the calculation of elemental balance. […] Daily elemental dosages, similar to that of human's, are 53.14 mg/kg for calcium, 0.38 to 55 mg/kg/day for magnesium and 0.017 to 2.5 mg/kg/day for zinc. […] The vehicle for preparing each dose was de-ionized water. The concentration of calcium in all dosage preparations was 15.94 mg/mL. One mL of each preparation was administered by gavage. Body weight, elemental dosage and diet consumption were recorded daily.
Animals were housed individually in a metabolic cage five days before the study. Food consumption was evaluated daily. Urine and feces were collected daily for four days and the content of calcium, magnesium and zinc was determined. On Day 5, each animal received its treatment. […] Immediately after blood collection, the animal was then sacrificed with an overdose of isoflourane. Each blood sample was centrifuged at 1900 rpm at room temperature; plasma was harvested and stored at −20° C. until analysis. Urine was measured daily; it was diluted with de-ionized water, filtered and an aliquot was stored at −20° C. until analysis. Daily fecal output was collected and lyophilized. Each sample was weighed and digested using a mixture of three volume of nitric acid and one volume of perchloric acid. For every gram of dried feces, 10 mL of acid mixture was added. Each sample was digested for three days. The volume of the digested sample was measured and an aliquot of the digest was stored at −20° C. until analysis. The content of calcium, magnesium and zinc in plasma, feces and urine were determined using ICP-OES.
Cumulated calcium balance and % cumulated net calcium balance were calculated using equations (1) and (2), except, the sum of daily intake and excretion was used for calculation. The balance for magnesium and zinc was also calculated using the concept of equations (1) and (2). Cumulated elemental balance and % cumulated net elemental balance were calculated in a similar fashion as described above.
All results were analyzed using two-way ANOVA. […] The data are presented as mean±S.D. and mean±S.E.M. in tables and figures, respectively.

## O=C([O-])[O-].[Ca+2] [calcium carbonate]
[1]
  Amount of calcium absorbed (bioavailability): 24%

## O=C([O-])CC(O)(CC(=O)[O-])C(=O)[O-].O=C([O-])CC(O)(CC(=O)[O-])C(=O)[O-].[Ca+2].[Ca+2].[Ca+2] [calcium citrate]
[2]
  Bioavailability of calcium: 30%

## [O]=[Mg] [magnesium oxide]
[3]
  Bioavailability of magnesium: 50%

## [O]=[Zn] [zinc oxide]
[4]
  Bioavailability of zinc: approximately 24%

## Calcium Acetate
[5]; Tables 36 and 40, dependent on the diet condition
  Bioavailability of calcium compared to calcium carbonate: at least 2 fold
[5]; calcium free diet, Day 1
  Cumulative net percentage of calcium: −30.6 ± 51.3 ^ %
[5]; calcium free diet, Day 2
  Cumulative net percentage of calcium: −9.88 ± 26.5 ^ %
[5]; calcium free diet, Day 3
  Cumulative net percentage of calcium: 4.88 ± 24.0 ^ %
[5]; calcium free diet, Day 4
  Cumulative net percentage of calcium (calcium retention): 11.1 ± 20.0 ^ %
